# Source: ChEMBL document CHEMBL2034957, “Synthesis and antitumor evaluation of novel benzo[d]pyrrolo[2,1-b]thiazole derivatives” (Eur J Med Chem, 2012)
# Activity calls are given as the source filed them. The rule behind the calls is not given here.
# Columns and labels:
# CCRF-CEM [1] = experiment: Cytotoxicity against human CCRF-CEM cells after 72 hrs by XTT assay; format: functional, cell-based
# CCRF-CEM [2] = experiment: Cytotoxicity against human taxol-resistant CCRF-CEM cells after 72 hrs by XTT assay; format: functional, cell-based
# CCRF-CEM [3] = experiment: Cytotoxicity against human vinblastine-resistant CCRF-CEM cells after 72 hrs by XTT assay; format: functional, cell-based
# MX1 [4] = experiment: Cytotoxicity against human MX1 cells after 72 hrs by SRB assay; format: functional, cell-based; conditions: MX1, 72 h
# HCT-116 = experiment: Cytotoxicity against human HCT116 cells after 72 hrs by SRB assay; format: functional, cell-based; conditions: HCT-116, 72 h
# [5] = Cytotoxicity against human H1299 cells after 72 hrs by alamar blue assay; format: functional, cell-based; conditions: NCI-H1299, 72 h
# PC-3 = experiment: Cytotoxicity against human PC3 cells after 72 hrs by alamar blue assay; format: functional, cell-based; conditions: PC-3, 72 h
# [6] = Cytotoxicity against human OECM1 cells after 72 hrs by alamar blue assay; format: functional, cell-based; conditions: OECM1, 72 h
# [7] = Cytotoxicity against human U87 cells after 72 hrs by alamar blue assay; format: functional, cell-based, U-87MG ATCC; conditions: U-87 MG
# MX1 [8] = experiment: Antitumor activity against human MX1 cells xenografted in athymic nude mouse assessed as tumor remission at 20 mg/kg, iv administered q2d for 3 days followed by 25 mg/kg, iv q2d for 5 days measured on day 26 post-tumor implantation; format: functional, organism-based
# MX1 [9] = experiment: Antitumor activity against human MX1 cells xenografted in athymic nude mouse assessed as tumor remission at 20 mg/kg, iv administered q2d for 3 days followed by 25 mg/kg, iv q2d for 4 days measured on day 26 post-tumor implantation; format: functional, organism-based
# MX1 [10] = experiment: Antitumor activity against human MX1 cells xenografted in athymic nude mouse assessed as tumor remission at 20 mg/kg, iv administered q2d for 3 days followed by 25 mg/kg, iv q2d for 4 days measured on day 28 post-tumor implantation; format: functional, organism-based
# Mus musculus = experiment: Toxicity in athymic nude mouse assessed as weight loss at 20 mg/kg, iv administered q2d for 3 days followed by 25 mg/kg, iv q2d for 5 days; format: organism-based; conditions: in vivo
# [11] = Cell cycle arrest in human H1299 cells assessed as G2/M phase cells at 4.5 to 9 uM after 24 hrs by propidium iodidee-based flow cytometry; format: functional; conditions: NCI-H1299
# [12] = Cell cycle arrest in human H1299 cells assessed as reduction in G2/M phase cells at 4.5 to 9 uM after 48 hrs by propidium iodidee-based flow cytometry; format: functional; conditions: NCI-H1299
# [13] = Cell cycle arrest in human H1299 cells assessed as increase in sub-G1 phase cells at 4.5 to 9 uM after 24 hrs by propidium iodidee-based flow cytometry; format: functional; conditions: NCI-H1299
# [14] = Cell cycle arrest in human H1299 cells at 18 uM after 24 hrs by propidium iodidee-based flow cytometry; format: functional; conditions: NCI-H1299
# [15] = Cell cycle arrest in human H1299 cells at 18 uM after 48 hrs by propidium iodidee-based flow cytometry; format: functional; conditions: NCI-H1299
# Nucleic Acid = experiment: Induction of Escherichia coli pEGFP-N1 DNA interstrand cross-linking at 1 to 20 uM after 2 hrs using ethidium bromide staining by alkaline agarose gel shift assay; format: nucleic-acid assay
# CCRF-CEM [16] = experiment: Ratio of IC50 for human taxol-resistant CCRF-CEM cells to IC50 for human CCRF-CEM cells; format: functional
# CCRF-CEM [17] = experiment: Ratio of IC50 for human vinblastine-resistant CCRF-CEM cells to IC50 for human CCRF-CEM cells; format: functional
# [18] = Toxicity in iv dosed athymic nude mouse assessed as mortality; format: organism-based; conditions: in vivo
smiles,measurement,setting,value
CC(C)NC(=O)OCc1c(COC(=O)NC(C)C)c2sc3ccccc3n2c1-c1ccc(Cl)cc1,IC50,CCRF-CEM [1],80 nM
same,IC50,CCRF-CEM [2],390 nM
same,IC50,CCRF-CEM [3],420 nM
same,IC50,MX1 [4],1190 nM
same,IC50,HCT-116,1700 nM
same,IC50,[5],8750 nM
same,IC50,PC-3,13700 nM
same,IC50,[6],7540 nM
same,IC50,[7],29000 nM
same,Activity,MX1 [8],Active
same,Activity,MX1 [9],Active
same,Activity,MX1 [10],Active
same,Activity,Mus musculus,10%
same,Activity,[11],Active
same,Activity,[12],Active
same,Activity,[13],Active
same,Activity,[14],Active
same,Activity,[15],inactive
same,Activity,Nucleic Acid,Active
same,Ratio IC50,CCRF-CEM [16],4.87
same,Ratio IC50,CCRF-CEM [17],5.25
same,MTD,[18],20 mg/kg
